From patent publication US10334851B2, “Herbicidal isoxazolo[5,4-B]pyridines” (BASF SE, priority 2010, dated 2019)

Legend:
Format in all cases: in vivo
[1] = test system: Setaria faberi; experiment: Greenhouse post-emergence treatment of Setaria faberi (giant foxtail); settings: for pest or weed control at 3000 g/ha / pest or weed control at 2000 g/ha: scale 0 to 100, read-out: damage; for damage: scale 0 to 100
Description: (§1) The seeds of the test plants were sown separately for each species. For the post-emergence treatment, the test plants were first grown to a height of 3 to 15 cm, depending on the plant habit, and only then treated with the active ingredients which had been suspended or emulsified in water. For this purpose, the test plants were either sown directly and grown in the same containers, or they were first grown separately as seedlings and transplanted into the test containers a few days prior to treatment. Depending on the species, the plants were kept at 10-25° C. or 20-35° C. The test period extended over 2 to 4 weeks. During this time, the plants were tended, and their response to the individual treatments was evaluated. Evaluation was carried out using a scale from 0 to 100. 100 means no emergence of the plants, or complete destruction of at least the aerial moieties, and 0 means no damage, or normal course of growth. A good herbicidal activity is given at values of at least 80 and a very good herbicidal activity is given at values of at least 90. The plants used in the greenhouse experiments belonged to the following species: [table]

[2] = test system: Matricaria inodora; experiment: Greenhouse post-emergence treatment of Matricaria inodora (horse daisy); settings: application rate 2.0 kg/ha, scale 0 (no damage) to 100 (complete destruction)
Description: as §1

[3] = test system: Abutilon theophrasti; experiment: Greenhouse post-emergence treatment of Abutilon theophrasti (velvetleaf); settings: scale 0 (no damage) to 100 (complete destruction); for pest or weed control at 2000 g/ha / pest or weed control at 3000 g/ha: Abutilon theophrasti
Description: as §1

[4] = test system: Agrostis stolonifera L.; experiment: Greenhouse post-emergence treatment of Agrostis stolonifera L. (white bent); settings: application rate 2.0 kg/ha, scale 0 (no damage) to 100 (complete destruction)
Description: as §1

[5] = test system: Chenopodium album; experiment: Greenhouse post-emergence treatment of Chenopodium album (fat-hen); settings: application rate 1.0 kg/ha; for damage: scale 0 to 100; for pest or weed control at 1000 g/ha: scale 0 to 100, read-out: damage
Description: as §1

[6] = test system: Lolium multiflorum; experiment: Greenhouse post-emergence treatment of Lolium multiflorum (italian ryegrass); settings: application rate 1.0 kg/ha, scale 0 (no damage) to 100 (complete destruction)
Description: as §1

[7] = test system: Avena fatua; experiment: Greenhouse post-emergence treatment of Avena fatua (spring-wild oat); settings: scale 0 (no damage) to 100 (complete destruction)
Description: as §1

[8] = test system: Alopecurus myosuroides; experiment: Greenhouse post-emergence treatment of Alopecurus myosuroides (blackgrass); settings: application rate 1.0 kg/ha, scale 0 (no damage) to 100 (complete destruction)
Description: as §1

[9] = test system: Polygonum convolvulus; experiment: Greenhouse post-emergence treatment of Polygonum convolvulus (wild buckwheat); settings: application rate 1.0 kg/ha, scale 0 to 100
Description: as §1

[10] = test system: Amaranthus retroflexus L.; experiment: Greenhouse post-emergence treatment of Amaranthus retroflexus L. (pigweed); settings: application rate 1.0 kg/ha; for damage: scale 0 to 100; for pest or weed control at 1000 g/ha: scale 0 to 100, read-out: damage
Description: as §1

## O=C(O)c1cc(C2(F)CC2)nc2onc(C3(F)CC3)c12
[1]; application rate 3.0 kg/ha
  pest or weed control at 3000 g/ha: 98%

## CCOC(=O)C1=C(COC(=O)c2cc(C3CC3)nc3onc(C)c23)NC(=O)NC1 [I.1.2]
[2]
  damage: 90%

## Cc1noc2nc(C3CC3)cc(C(=O)OCC#N)c12 [I.1.6]
[1]; application rate 3.0 kg/ha
  damage: 95%
[3]; application rate 3.0 kg/ha
  damage: 100%

## Cc1noc2nc(C3CC3)cc(C(=O)OCc3nc(-c4cccs4)no3)c12 [I.1.10]
[4]
  damage: 90%
[2]
  damage: 85%

## Cc1noc2nc(C3CC3)cc(C(=O)OCc3nc4ccccc4o3)c12 [I.1.21]
[5]
  damage: 100%
[6]
  damage: 100%

## Cc1noc2nc(C3CC3)cc(C(=O)OC(C)C(N)=O)c12 (stereo not drawn) [I.1.24]
[2]
  damage: 100%

## COc1ccc(-c2nc(COC(=O)c3cc(C4CC4)nc4onc(C)c34)co2)cc1 [I.1.31]
[4]
  damage: 85%
[2]
  damage: 95%

## CCCN(CC1CC1)C(=O)COC(=O)c1cc(C2CC2)nc2onc(C)c12 [I.1.35]
[3]; application rate 3.0 kg/ha
  damage: 90%
[7]; application rate 3.0 kg/ha
  damage: 85%

## COC(=O)c1cc(C2CC2)nc2onc(C)c12 [I.1.39]
[4]
  damage: 90%
[7]; application rate 2.0 kg/ha
  damage: 85%

## Cc1noc2nc(C3CC3)cc(C(=O)OCC(=O)OC(C)(C)C)c12 [I.1.43]
[8]
  damage: 80%
[7]; application rate 1.0 kg/ha
  damage: 90%

## CCc1ccc(C(=O)COC(=O)c2cc(C3CC3)nc3onc(C)c23)s1 [I.1.49]
[4]
  damage: 85%
[2]
  damage: 98%

## CCOC(=O)c1cc(C2CC2)nc2onc(C)c12 [I.1.63]
[7]; application rate 3.0 kg/ha
  damage: 80%

## Cc1noc2nc(C3CC3)cc(C(=O)OCC(F)(F)F)c12 [I.1.67]
[3]; application rate 3.0 kg/ha
  damage: 100%
[7]; application rate 3.0 kg/ha
  damage: 95%

## Cc1noc2nc(C3CC3)cc(C(=O)O)c12 [I.2.1]
[1]; application rate 2.0 kg/ha
  pest or weed control at 2000 g/ha: 100%
[3]; application rate 2.0 kg/ha
  pest or weed control at 2000 g/ha: 95%

## CC(C)(C)Cc1noc2nc(C3CC3)cc(C(=O)O)c12 [I.2.2]
[1]; application rate 2.0 kg/ha
  damage: 90%
[3]; application rate 2.0 kg/ha
  damage: 100%

## CCCc1noc2nc(C3CC3)cc(C(=O)O)c12 [I.2.3]
[1]; application rate 3.0 kg/ha
  damage: 85%
[3]; application rate 3.0 kg/ha
  damage: 100%

## O=C(O)c1cc(C2CC2)nc2onc(-c3ccco3)c12 [I.2.4]
[2]
  damage: 98%

## O=C(O)c1cc(C2CC2)nc2onc(-c3ccccc3)c12 [I.2.5]
[1]; application rate 3.0 kg/ha
  damage: 80%
[3]; application rate 3.0 kg/ha
  damage: 100%

## CC(C)c1noc2nc(C3CC3)cc(C(=O)O)c12 [I.2.6]
[1]; application rate 3.0 kg/ha
  pest or weed control at 3000 g/ha: 95%
[3]; application rate 3.0 kg/ha
  pest or weed control at 3000 g/ha: 100%

## O=C(O)c1cc(C2CC2)nc2onc(C3CC3)c12 [I.2.7]
[1]; application rate 3.0 kg/ha
  pest or weed control at 3000 g/ha: 100%
[3]; application rate 3.0 kg/ha
  pest or weed control at 3000 g/ha: 100%

## COc1ccc(-c2noc3nc(C4CC4)cc(C(=O)O)c23)cc1 [I.2.8]
[1]; application rate 3.0 kg/ha
  damage: 80%
[3]; application rate 3.0 kg/ha
  damage: 100%

## O=C(O)c1cc(C2CC2)nc2onc(C(F)(F)F)c12 [I.2.10]
[1]; application rate 3.0 kg/ha
  pest or weed control at 3000 g/ha: 85%
[3]; application rate 3.0 kg/ha
  pest or weed control at 3000 g/ha: 90%

## O=C(O)c1cc(C2CC2)nc2onc(CCc3ccccc3)c12 [I.2.11]
[1]; application rate 3.0 kg/ha
  damage: 100%
[3]; application rate 3.0 kg/ha
  damage: 100%

## O=C(O)c1cc(C2CC2)nc2onc(C3CCC3)c12 [I.2.12]
[1]; application rate 3.0 kg/ha
  pest or weed control at 3000 g/ha: 90%
[3]; application rate 3.0 kg/ha
  pest or weed control at 3000 g/ha: 100%

## CC1CC1c1noc2nc(C3CC3)cc(C(=O)O)c12 (stereo not drawn) [I.2.13]
[1]; application rate 2.0 kg/ha
  pest or weed control at 2000 g/ha: 95%
[3]; application rate 2.0 kg/ha
  pest or weed control at 2000 g/ha: 100%

## O=C(O)c1cc(C2CC2)nc2onc(C3CCCC3)c12 [I.2.14]
[1]; application rate 3.0 kg/ha
  pest or weed control at 3000 g/ha: 90%
[3]; application rate 3.0 kg/ha
  pest or weed control at 3000 g/ha: 100%

## O=C(O)c1cc(C2CC2)nc2onc(-c3cccnc3)c12 [I.2.15]
[1]; application rate 3.0 kg/ha
  pest or weed control at 3000 g/ha: 100%
[3]; application rate 3.0 kg/ha
  pest or weed control at 3000 g/ha: 85%

## O=C(O)c1cc(C2CC2)nc2onc(-c3ccncc3)c12 [I.2.16]
[1]; application rate 3.0 kg/ha
  pest or weed control at 3000 g/ha: 100%
[3]; application rate 3.0 kg/ha
  pest or weed control at 3000 g/ha: 85%

## O=C(O)c1cc(C2CC2)nc2onc(-c3ccc(-c4ccccc4)cc3)c12 [I.2.19]
[1]; application rate 3.0 kg/ha
  damage: 85%
[3]; application rate 3.0 kg/ha
  damage: 100%

## O=C(O)c1cc(C2CC2)nc2onc(-c3ccc(Br)cc3)c12 [I.2.20]
[1]; application rate 3.0 kg/ha
  damage: 95%
[3]; application rate 3.0 kg/ha
  damage: 100%

## CCc1noc2nc(C3CC3)cc(C(=O)O)c12 [I.2.25]
[1]; application rate 3.0 kg/ha
  pest or weed control at 3000 g/ha: 95%

## O=C(O)c1cc(C2CC2)nc2onc(-c3ccccc3Br)c12 [I.2.59]
[5]
  damage: 95%
[9]
  damage: 90%

## O=C(O)c1cc(C2CC2)nc2onc(-c3ccccc3OC(F)F)c12 [I.2.64]
[10]
  damage: 100%
[9]
  damage: 80%

## O=C(O)c1cc(C2CC2)nc2onc(-c3ccc([N+](=O)[O-])cc3)c12 [I.2.65]
[10]
  damage: 100%
[9]
  damage: 100%

## Cc1ccsc1-c1noc2nc(C3CC3)cc(C(=O)O)c12 [I.2.69]
[5]
  pest or weed control at 1000 g/ha: 95%
[9]
  damage: 85%

## COC(=O)c1cc(C2CC2)nc2onc(-c3cccnc3)c12 [I.4.2]
[1]; application rate 3.0 kg/ha
  pest or weed control at 3000 g/ha: 85%

## COC(=O)c1cc(C2CC2)nc2onc(C3CC3C)c12 (stereo not drawn) [I.4.3]
[1]; application rate 3.0 kg/ha
  pest or weed control at 3000 g/ha: 90%

## COC(=O)c1cc(C2CC2)nc2onc(C(F)(F)F)c12 [I.4.6]
[1]; application rate 3.0 kg/ha
  pest or weed control at 3000 g/ha: 80%

## COC(=O)c1cc(C2CC2)nc2onc(-c3cccc(OC)c3)c12 [I.4.19]
[1]; application rate 3.0 kg/ha
  damage: 100%

## Cc1ccccc1-c1cc(C(=O)O)c2c(C)noc2n1 [I.5.8]
[1]; application rate 3.0 kg/ha
  damage: 85%

## Cc1noc2nc(-c3ccc(OC(F)F)cc3)cc(C(=O)O)c12 [I.5.13]
[1]; application rate 3.0 kg/ha
  damage: 95%

## CC(C)c1noc2nc(-c3ccc(F)cc3)cc(C(=O)O)c12 [I.7.4]
[1]; application rate 3.0 kg/ha
  damage: 80%

## COc1ccccc1-c1cc(C(=O)O)c2c(C(C)C)noc2n1 [I.7.7]
[1]; application rate 3.0 kg/ha
  damage: 85%

## CCc1cc(C(=O)O)c2c(C3CC3)noc2n1 [I.7.17]
[1]; application rate 3.0 kg/ha
  pest or weed control at 3000 g/ha: 90%
[3]; application rate 3.0 kg/ha
  pest or weed control at 3000 g/ha: 100%

## Cc1noc2nc(C3(F)CC3)cc(C(=O)O)c12 [I.7.51]
[1]; application rate 3.0 kg/ha
  pest or weed control at 3000 g/ha: 90%

## O=C(O)c1cc(C2(F)CC2)nc2onc(-c3ccc(C(F)(F)F)cc3)c12 [I.7.59]
[10]
  damage: 100%
[9]
  damage: 100%

## O=C(O)c1cc(C2(F)CC2)nc2onc(-c3ccc(Br)cc3)c12 [I.7.60]
[10]
  damage: 100%
[9]
  damage: 100%

## O=C(O)c1cc(C2(F)CC2)nc2onc(-c3ccc(OC(F)F)cc3)c12 [I.7.65]
[5]
  damage: 100%
[10]
  damage: 100%

## CCCCc1noc2nc(C3(F)CC3)cc(C(=O)O)c12 [I.7.66]
[5]
  damage: 100%
[9]
  damage: 100%

## CC(C)c1noc2nc(C3(F)CC3)cc(C(=O)O)c12 [I.7.67]
[5]
  pest or weed control at 1000 g/ha: 100%
[9]
  damage: 100%

## CC(C)Cc1noc2nc(C3(F)CC3)cc(C(=O)O)c12 [I.7.68]
[5]
  damage: 100%
[10]
  damage: 100%

## CC(C)(C)Cc1noc2nc(C3(F)CC3)cc(C(=O)O)c12 [I.7.69]
[10]
  damage: 100%
[9]
  damage: 100%

## CCc1noc2nc(C3(F)CC3)cc(C(=O)O)c12 [I.7.90]
[5]
  pest or weed control at 1000 g/ha: 100%
[10]
  pest or weed control at 1000 g/ha: 100%

## COC(=O)c1cc(C2CC2)nc2onc(C3CC3)c12 [I.8.4]
[5]
  pest or weed control at 1000 g/ha: 100%
[10]
  pest or weed control at 1000 g/ha: 100%
